Like-named read-outs stand apart in the source and are kept apart here. Each block holds one compound with its values, some of them ahead of it.
Columns and labels:
[1] = system: TMD8 cells (Human diffuse large B lymphoma cells); assay: CellTiter-Glo TMD8 inhibitory activity; type: cell-based; conditions: cultured in vitro
Description: CellTiter-Glo kit was used to test the TMD8 inhibitory activity of compounds of examples on Human diffuse large B lymphoma cells cultured in vitro. IC50 values were shown below.

[2] = biological target: Full-length human BTK (C481S) (Homo sapiens (Human), UniProt Q06187, C481S); assay: BTK (C481S) inhibitory activity, Reaction Biology Corporation kinase assay; conditions: for inhibition at 0.005 µM: read-out: BTK(C481S) inhibitory rate(%)
Chain of Full-length human BTK (C481S) (Q06187 whole entry C481S): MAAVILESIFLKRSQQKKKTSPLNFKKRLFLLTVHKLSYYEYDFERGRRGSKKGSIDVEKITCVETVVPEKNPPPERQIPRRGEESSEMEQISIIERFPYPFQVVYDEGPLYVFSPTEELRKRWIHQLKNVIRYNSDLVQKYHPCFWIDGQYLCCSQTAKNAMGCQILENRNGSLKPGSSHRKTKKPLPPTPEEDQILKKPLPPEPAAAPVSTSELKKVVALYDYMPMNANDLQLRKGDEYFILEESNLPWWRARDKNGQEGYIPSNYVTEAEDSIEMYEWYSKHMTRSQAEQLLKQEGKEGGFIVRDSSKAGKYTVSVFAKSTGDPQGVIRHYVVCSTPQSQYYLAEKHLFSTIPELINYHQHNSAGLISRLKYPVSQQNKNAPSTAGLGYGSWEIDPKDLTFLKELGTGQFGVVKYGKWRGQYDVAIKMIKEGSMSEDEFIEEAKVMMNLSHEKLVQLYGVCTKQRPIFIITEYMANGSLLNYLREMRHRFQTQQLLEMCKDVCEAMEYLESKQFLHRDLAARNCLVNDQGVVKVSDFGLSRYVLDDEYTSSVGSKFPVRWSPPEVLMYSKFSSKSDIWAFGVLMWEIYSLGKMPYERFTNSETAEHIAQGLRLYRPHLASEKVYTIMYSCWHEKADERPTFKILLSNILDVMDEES

[3] = biological target: Full-length human BTK (Homo sapiens (Human), UniProt Q06187); assay: BTK inhibitory activity, Reaction Biology Corporation kinase assay; conditions: for inhibition at 0.005 µM: read-out: BTK inhibitory rate(%)
Chain of Full-length human BTK (Q06187 whole entry): as the sequence (Q06187 whole entry C481S) above, with S481C counted along it

[4] = read-out: IC50(nM) BTK(C481S), (d) ATP concentration 50 μM
[5] = read-out: IC50(nM) BTK, (d) ATP concentration 50 μM
[6] = IC50(nM) BTK(C481S), (d) ATP concentration 50 μM
[7] = IC50(nM) BTK, (d) ATP concentration 50 μM
[8] = read-out: IC50(nM) BTK, (a) ATP concentration 30 μM

SMILES: CC1(O)CCC(n2nc(-c3ccc(Oc4ccccc4)cc3)c3c(N)ncnc32)C1 (centres unmarked) [Example 6, 3-(4-amino-3-(4-phenoxyphenyl)-1H-pyrazolo[3,4-d]pyrimidin-1-yl)-1-methylcyclopentanol]
IC50 [1]: 17 nM
inhibition at 0.005 µM [2]: 63%
inhibition at 0.005 µM [3]: 70%

SMILES: C[C@]1(O)CC[C@H](n2nc(-c3ccc(Oc4ccccc4)cc3)c3c(N)ncnc32)CC1 [Example 9B, (1r,4r)-4 (4-amino-3-(4-phenoxyphenyl)-1H-pyrazolo[3,4-d]pyrimidin-1-yl]-1-methylcyclohexane-1-ol]
IC50 [1]: 37 nM
inhibition at 0.005 µM [2]: 63%
inhibition at 0.005 µM [3]: 46%

SMILES: Nc1ncnc2c1c(-c1ccc(Oc3ccccc3)cc1)nn2[C@@H]1CCC[C@H](O)C1 [Example 2, (1S, 3R)-3-(4-amino-3-(4-phenoxyphenyl)-1H-pyrazolo[3,4-d]pyrimidin-1-yl) cyclohex-1-ol]
inhibition at 0.005 µM [3]: 50%

SMILES: Nc1ncnc2c1c(-c1ccc(Oc3ccccc3)cc1F)nn2[C@@H]1CCC[C@@H](O)C1 [Example 16, (1R, 3R)-3-(4-amino-3-(2-fluoro-4-phenoxyphenyl)-1H-pyrazolo[3,4-d]pyrimidin-1-yl)cyclohex-1-ol]
IC50 [1]: 41 nM
IC50 [3, 8]: 18.8 nM

SMILES: Nc1ncnc2c1c(-c1ccc(Oc3ccccc3)cc1)nn2[C@H]1CC[C@@H](O)CC1 [Example 8A, (1s, 4S)-4-(4-amino-3-(4-phenoxyphenyl)-1H-pyrazolo[3,4-d]pyrimidin-1-yl) cyclohexane-1-ol]
IC50 [1]: 90 nM
inhibition at 0.005 µM [2]: 66%
inhibition at 0.005 µM [3]: 82%

SMILES: Nc1ncnc2c1c(-c1ccc(Oc3ccccc3)cc1)nn2C1CCC(O)C1 (centres unmarked) [Example 5]
IC50 [1]: 29 nM
inhibition at 0.005 µM [2]: 53%
inhibition at 0.005 µM [3]: 62%

SMILES: Nc1ncnc2c1c(-c1ccc(Oc3ccccc3)cc1)nn2C1CCC(O)(C(F)(F)F)C1 (centres unmarked) [Example 7, 3-(4-amino-3-(4-phenoxyphenyl)-1H-pyrazolo[3,4-d]pyrimidin-1-yl)-1-(trifluoromethyl) Cyclopentanol]
IC50 [1]: 504 nM

SMILES: C[C@]1(O)CC[C@@H](n2nc(-c3ccc(Oc4ccccc4)cc3)c3c(N)ncnc32)CC1 [Example 9A, (1s,4s)-4-(4-amino-3-(4-phenoxyphenyl)-1H-pyrazolo[3,4-d]pyrimidin-1-yl]-1-methylcyclohexane-1-ol]
IC50 [1]: 72 nM
inhibition at 0.005 µM [2]: 77%
inhibition at 0.005 µM [3]: 57%

SMILES: Nc1ncnc2c1c(-c1ccc(Oc3cccc(F)c3)cc1)nn2[C@@H]1CCC[C@@H](O)C1 [Example 15]
IC50 ([2]; read-out: IC50(nM) BTK(C481S), (c) ATP concentration 10 μM): 1.7 nM
inhibition at 0.005 µM [3]: 55%
IC50 ([3]; read-out: IC50(nM) BTK, (c) ATP concentration 10 μM): 3.8 nM

SMILES: C[C@@]1(O)CCC[C@@H](n2nc(-c3ccc(Oc4ccccc4)cc3)c3c(N)ncnc32)C1 [Example 3B, (1R, 3R)-3-(4-amino-3-(4-phenoxyphenyl)-1H-pyrazolo[3,4-d]pyrimidin-1-yl)-1-methylcyclohexane-1-ol]
IC50 [1]: 200 nM

SMILES: Nc1ncnc2c1c(-c1ccc(Oc3ccccc3)cc1)nn2C1CCC(O)(C2CC2)CC1 (centres unmarked) [Example 10, 4-(4-amino-3-(4-phenoxyphenyl)-1H-pyrazolo[3,4-d]pyrimidin-1-yl]-1-cyclopropylcyclohexane-1-ol]
IC50 [1]: 145 nM
inhibition at 0.005 µM [2]: 72%
inhibition at 0.005 µM [3]: 63%

SMILES: C[C@]1(O)CCC[C@@H](n2nc(-c3ccc(Oc4ccccc4)cc3)c3c(N)ncnc32)C1 [Example 3A, (1s, 3R)-3-(4-amino-3-(4-phenoxyphenyl)-1H-pyrazolo[3,4-d]pyrimidin-1-yl)-1-methylcyclohexane-1-ol]
IC50 [1]: 208 nM

Second part, the compound after the results:

IC50 [2, 4]: 0.6 nM
IC50 [3, 5]: 1.7 nM
SMILES: COc1cccc(Oc2ccc(-c3nn(C4CCC(O)C(O)C4)c4ncnc(N)c34)cc2)c1F (centres unmarked) [Example 28, 4-(4-amino-3-(4-(2-fluoro-3-methoxyphenoxy)phenyl)-1H-pyrazolo[3,4-d]pyrimidin-1-yl)cyclohexane-1,2-diol]

IC50 [2, 6]: 3.7 nM
IC50 [3, 7]: 3.8 nM
SMILES: COc1cccc(Oc2ccc(-c3nn(C4CCC(CO)OC4)c4ncnc(N)c34)cc2)c1F (single isomer, unassigned) [Example 30 Peak1-1, (5-(4-amino-3-(4-(2-fluoro-3-methoxyphenoxy)phenyl)-1H-pyrazolo[3,4-d]pyrimidin-1-yl)tetrahydro-2 h-pyran-2-yl)methanol]

IC50 [2, 4]: 0.9 nM
IC50 [3, 5]: 2.6 nM
SMILES: COc1cccc(Oc2ccc(-c3nn([C@H]4CCC[C@H](O)C4)c4ncnc(N)c34)cc2)c1F [Example 32, (1S,3S)-3-(4-amino-3-(4-(2-fluoro-3-methoxyphenoxy)phenyl)-1H-pyrazolin[3,4-d]pyrimidin-1-yl)cyclohexanol]

IC50 [1]: 33 nM
IC50 [3, 8]: 24.1 nM
SMILES: Nc1ncnc2c1c(-c1ccc(Oc3ccccc3F)cc1)nn2[C@@H]1CCC[C@@H](O)C1 [Example 17, (1R,3R)-3-(4-amino-3-(4-(2-fluorophenoxy)phenyl)-1H-pyrazolo[3,4-d]pyrimidin-1-yl)cyclohex-1-ol]

IC50 [1]: 8.6 nM
IC50 ([2]; read-out: IC50(nM) BTK(C481S), (b) ATP concentration 100 μM): 0.9 nM
IC50 ([3]; read-out: IC50(nM) BTK, (b) ATP concentration 100 μM): 5 nM
SMILES: COc1cccc(Oc2ccc(-c3nn([C@H]4CC[C@@H](O)CC4)c4ncnc(N)c34)cc2)c1F [Example 20, (1s,4s)-4-(4-amino-3-(4-(2-fluoro-3-methoxyphenoxy)phenyl)-1H-pyrazolo[3,4-d]pyrimidin-1-yl)cyclohex-1-ol]

IC50 [1]: 8 nM
SMILES: COc1cccc(Oc2ccc(-c3nn(C4CCC(O)C4)c4ncnc(N)c34)cc2)c1F (centres unmarked) [Example 22, 3-(4-amino-3-(4-(2-fluoro-3-methoxyphenoxy)phenyl)-1H-pyrazolo[3,4-d]pyrimidin-1-yl)cyclopentane-1-ol]

IC50 [2, 6]: 6.7 nM
IC50 [3, 7]: 8.5 nM
SMILES: COc1cccc(Oc2ccc(-c3nn(C4CCC(CO)OC4)c4ncnc(N)c34)cc2)c1F (single isomer, unassigned) [Example 30 Peak1-2, (5-(4-amino-3-(4-(2-fluoro-3-methoxyphenoxy)phenyl)-1H-pyrazolo[3,4-d]pyrimidin-1-yl)tetrahydro-2 h-pyran-2-yl)methanol]

IC50 [2, 6]: 1.1 nM
IC50 [3, 7]: 1.8 nM
SMILES: COc1cccc(Oc2ccc(-c3nn(C4CCC(CO)OC4)c4ncnc(N)c34)cc2)c1F (single isomer, unassigned) [Example 30 Peak2-1, (5-(4-amino-3-(4-(2-fluoro-3-methoxyphenoxy)phenyl)-1H-pyrazolo[3,4-d]pyrimidin-1-yl)tetrahydro-2 h-pyran-2-yl)methanol]

IC50 [2, 6]: 2.8 nM
IC50 [3, 7]: 5 nM
SMILES: COc1cccc(Oc2ccc(-c3nn(C4CCC(CO)OC4)c4ncnc(N)c34)cc2)c1F (single isomer, unassigned) [Example 30 Peak2-2, (5-(4-amino-3-(4-(2-fluoro-3-methoxyphenoxy)phenyl)-1H-pyrazolo[3,4-d]pyrimidin-1-yl)tetrahydro-2 h-pyran-2-yl)methanol]

IC50 [3, 8]: 64.1 nM
SMILES: COc1cccc(Oc2ccc(-c3nn(C4CCCCC4)c4ncnc(N)c34)cc2)c1F [Example 29, 1-cyclohexyl-3-(4-(2-fluoro-3-methoxyphenoxy)phenyl)-1H-pyrazolo[3,4-d]pyrimidin-4-amine, reference compound]

IC50 [3, 8]: 16 nM
SMILES: COc1cccc(Oc2ccc(-c3nn([C@H]4CC[C@H](O)CC4)c4ncnc(N)c34)cc2)c1F [Example 21, (1r, 4r)-4-(4-amino-3-(4-(2-fluoro-3-methoxyphenoxy)phenyl)-1H-pyrazolo[3,4-d]pyrimidin-1-yl)cyclohex-1-ol]

IC50 [1]: 0.5 nM
IC50 [3, 8]: 24.9 nM
SMILES: COc1cccc(Oc2ccc(-c3nn([C@@H]4CCC[C@@H](O)C4)c4ncnc(N)c34)cc2)c1F [Example 19, (1R, 3R)-3-(4-amino-3-(4-(2-fluoro-3-methoxyphenoxy)phenyl)-1H-pyrazolo[3,4-d]pyrimidin-1-yl)cyclohex-1-ol]

IC50 [3, 8]: 26.9 nM
SMILES: Nc1ncnc2c1c(-c1ccc(Oc3cccc(F)c3)cc1)nn2C1CCC(O)C1 (centres unmarked) [Example 25, 3-(4-amino-3-(4-(3-fluorophenoxy)phenyl)-1H-pyrazolo[3,4-d]pyrimidin-1-yl) cyclopentane-1-ol]

IC50 [3, 8]: 19.2 nM
SMILES: Nc1ncnc2c1c(-c1ccc(Oc3cccc(O)c3F)cc1)nn2[C@@H]1CCC[C@@H](O)C1 [Example 33, (1R,3R)-3-(4-(4-amino-1-(3-hydroxycyclohexyl)-1H-pyrazolo[3,4-d]pyrimidin-3-yl)phenoxy)-2-fluorophenol]

IC50 [1]: 183 nM
IC50 [3, 8]: 49.1 nM
SMILES: Nc1ncnc2c1c(-c1ccc(Oc3c(F)cccc3F)cc1)nn2[C@@H]1CCC[C@@H](O)C1 [Example 18, (1R, 3R)-3-(4-amino-3-(4-(2,6-difluorophenoxy)phenyl)-1H-pyrazolo[3,4-d]pyrimidin-1-yl)cyclohex-1-ol]

Reference: patent publication US12384786B2 (MINGHUI PHARMACEUTICAL (SHANGHAI) LIMITED, priority 2019, dated 2025)
